This is an account of results in publication PMC11610669, “A Spectroscopic Study on the Amyloid‐β Interaction with Clicked Peptide‐Porphyrin Conjugates: a Vision Toward the Detection of Aβ Peptides in Aqueous Solution” (Chembiochem, 2024).

Data set [1] deals with SH-SY5Y. The data set is described as follows: Live cell confocal fluorescence imaging. The class given is cell-based, human. The note with it: RA-differentiated SH-SY5Y, 5 μM, 24 h, excitation 405 nm, emission 600–700 nm. The method, then: The intracellular localization of porphyrins in living cells has already been reported in the literature.[50, 51] […] The ability of our compounds to associate with cells or to be taken up by them was investigated by live cell confocal fluorescence and flow cytometry. For this purpose, we exploited the fluorescence of the porphyrin moiety. Fully differentiated SH‐SY5Y cells were exposed to 5 μM of each compound for 24 h, and then fluorescence spectra inside and outside cells were measured as described in the experimental section. The images reported in Figure 6, panel a, show the emission spectra recorded (pixel by pixel) inside cells, compared to the emission spectra recorded for control cells (no porphyrins in the growth medium). A specific porphyrin signal recorded between 600 nm and 700 nm only in the exposed sample, provides evidence that the porphyrin‐conjugated compounds are distributed within the cells. We first measured the emission spectra of each compound to confirm that the fluorescent properties measured in vitro were maintained under the conditions applied during the biological assay. Once the specific emission peak typical of porphyrins was detected inside the cells, we measured the average fluorescence intensity for each compound under study. Although modest, the signal was detected in almost every cell under the microscope stage. […]

In data set [2] the target is Aβ42 (Homo sapiens, UniProt P05067). The data set is described as follows: Grating-Coupled Interferometry (GCI) binding to immobilized Aβ42. The method, then:
The Grating‐Coupled Interferometry (GCI) is a widely used analytical technique for characterizing intermolecular interactions. It allows quantitative measurements of both the affinity and the kinetics of the binding events. This high sensitivity label‐free method was exploited to measure the interactions of Aβ42 with Cu‐Ph‐Pep , Ph‐Pep , and Zn‐Ph‐Pep (Figure 5S). Control experiments with pristine MCPTPyP and the peptide GPGKLVFF ( Pep ) were carried out for comparison. The calculated association and dissociation kinetic constants (kon and koff, respectively) and the thermodynamic binding constant (KD), are summarized in Table 1. The obtained values indicate that all the conjugates show good affinities with Aβ42. It is also clear from Table 1 that the peptide moiety is fundamental for the molecular recognition of the Aβ42 peptide.[48] […] Nevertheless, it is important to emphasize that the interaction with Aβ42 is primarily mediated by the peptide rather than by the porphyrin macrocycle. We next investigated whether these peptide derivatives could be employed as molecular probes for the detection of Aβ42 aggregated species. A new set of CD experiments was then carried out with Aβ42 at 20 μM both in the absence and in the presence of the porphyrin‐peptide conjugates at 1 : 1 molar ratio in the UV (195–350) and Visible (350–500) regions. […] The signal rapidly evolved toward the typical β‐sheet profile (already within 24 h) with a single minimum at 216 nm, an x‐axis intercept at 202 nm and a maximum shift at a wavelength 195 nm.[49] […] For the sake of comparison, the CD spectra of the porphyrin‐peptide conjugates at 20 μM were also recorded in the same experimental conditions, both in the far‐UV and Visible regions (Figure 6S).
The experiments were performed on a Creoptix WAVE system (Creoptix). Borate buffer (100 mM sodium borate pH 9.0, 1 M NaCl) was used for chip conditioning. Aβ42 peptide (20 μg/ml in Na Acetate pH 4.5) was immobilized on 4PCH WAVE chips (quasiplanar polycarboxylate surface; Creoptix) according to the manufacturer instructions at a final density of 1910±40 pg/mm^2. Single‐cycle sequential injections of dilution series for each Porphyrin‐Peptide conjugates in running buffer (PBS, 0.005 % Tween 20, 1 % DMSO, 0.2 mg/ml BSA) were performed at 25 °C, using a flow rate of 100 μl/min. In details, for the conjugate Cu‐Ph‐Pep , 1 : 2 dilution series starting from 200 μM were injected for 10 s association time, 45 s dissociation time, followed by a dissociation time of 600 s for the last higher concentration injection. Finally, for the conjugates Ph‐Pep and Zn‐Ph‐Pep , 1 : 2 dilution series starting from 50 μM and 100 uM, respectively, were injected for 30 s association time, 45 s dissociation time, followed by a dissociation time of 600 s for the last higher concentration injection. Blank injections were used for double referencing and a DMSO calibration curve for bulk correction. Analysis and correction of the obtained data were performed using the Creoptix WAVE control software (correction applied: X and Y offset; DMSO calibration; double referencing). Mass transport binding models with bulk correction were used to fit all experiments. All the experiments have been performed at least in triplicate.
Figure 5S. Quantitative binding kinetics of Aβ42 vs a) MCPTPyP; b) Cu-Ph-Pep; c) Ph-Pep; d) Zn-Ph-Pep; and e) Pep measured by GCI. All curves were blank subtracted. Experiments were performed in triplicate. All the quality assessments (i.e., χ2 shown in Table 1 of the main text , parameter errors, and residual plots were acceptable; the sensorgrams had sufficient curvatures an d the kinetic constant k off were within the measurable range) were fulfilled. Descriptive Statistical Analysis was employed to calculate the mean of the obtained values of k on, koff and KD as a measure of central tendency and standard deviations of the former values were computed as a measure of dispersion.
Figure 6S. […]

Aβ42, sequence (P05067 672-713 limits assumed): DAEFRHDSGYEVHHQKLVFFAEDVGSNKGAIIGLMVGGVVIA

With `C[n+]1ccc(-c2c3nc(c(-c4cc[n+](C)cc4)c4ccc([nH]4)c(-c4cc[n+](C)cc4)c4nc(c(-c5ccc(C(=O)O)cc5)c5ccc2[nH]5)C=C4)C=C3)cc1.[Cl-].[Cl-].[Cl-]` [MCPTPyP, 5‐(4‐carboxyphenyl)‐10,15,20‐(tri‐N‐Methyl‐4‐Pyridyl) Porphyrin trichloride, reference compound], in data set [1], the “cell entry / intracellular distribution” value was “able to cross the plasma membrane and to distribute within the cells”. Moreover, binding in data set [2] (GCI (Creoptix WAVE), Aβ42 immobilized on 4PCH chip, PBS, 0.005 % Tween 20, 1 % DMSO, 0.2 mg/ml BSA, 25 °C, 100 μl/min, mass transport binding model, mean ± SD, at least triplicate) was put at a Kd of 215 ± 13 µM. For the same compound, the “χ^2 (average of the squared residuals, fitting confidence)” value in data set [2] (GCI fit quality parameter) amounted to 0.63±0.06.
